Consider 15 compounds from patent US10022374B2, “Certain protein kinase inhibitors” (Shanghai Fochon Pharmaceutical Co., Ltd., priority 2013, dated 2018).

Structures are written as SMILES. Read-outs that look alike come from different tables or passages of the source.

One experiment deals with HT-29 cells. Kind of experiment: Inhibition of cell proliferation (MTS), HT-29 cells. The class given is cell-based. As to conditions: Homo sapiens, HT-29, 72 h. How it is done:
(§1) MTS testing kit was purchased from Promega. The DMEM, RPMI-1640 and Fetal bovine serum were purchased from Gibco. Dimethyl sulfoxide (DMSO) was purchased from Sigma.
(§2) To investigate whether a compound is able to inhibit the activity of MEK in cells, a mechanism-based assay using A-375 and HT-29 cell was developed. In this assay, inhibition of MEK was detected by the inhibition of A-375 and HT-29 cells proliferation. A-375 and HT-29 cells were cultured in culture flasks to 40-80% confluence respectively in DMEM and RPMI-1640 plus 10% fetal bovine serum. Cells were collected and plated onto 96-well plates at desired cell density (A-375: 3000 cells/well; HT-29: 5000 cells/well). Plates were incubated overnight at 37° C., with 5% CO2 to adhere. Compounds were added to the plates. The final compound concentrations were […], 12.35, 4.12, 1.37, 0.46 and 0.15 nM, respectively. Place plates at 37° C., with 5% CO2 for 72 h. 10 μl MTS were added to each well and incubate the plates for exactly 2 hours. Absorbance was measured at 490 nm. […] was calculated using GraphPad Prism 5.0.

For a further experiment, the system named is A-375 cells. The experiment can be described thus: Inhibition of cell proliferation (MTS), A-375 cells. The class given is cell-based. As to conditions: Homo sapiens, A-375, 72 h. How it is done: as §1, §2
Setting [1] is: HT-29 cells, 5000 cells/well, 72 h, MTS, absorbance 490 nm, read-out: HT29 IC50.
Where [2] appears, read: A-375 cells, 3000 cells/well, 72 h, MTS, absorbance 490 nm, read-out: A375 IC50.

By IC50 is commonly meant the concentration that gives 50% inhibition. Take `Cn1c(=O)c(F)c(Nc2ccc(I)cc2F)c2c(=O)n(CC(O)CO)nc(-c3cccc(NS(C)(=O)=O)c3)c21` (stereo not drawn) [Example 43, N-(3-(6-(2,3-dihydroxypropyl)-3-fluoro-4-(2-fluoro-4-iodophenylamino)-1-methyl-2,5-dioxo-1,2,5,6-tetrahydropyrido[2,3-d]pyridazin-8-yl)phenyl)methanesulfonamide]: the IC50 turned out to be 4.6 nM in the experiment on HT-29 cells (setting [1]) and 3.6 nM in the experiment with A-375 cells (setting [2]).
For `CCS(=O)(=O)Nc1cccc(-c2nn(CC(O)CO)c(=O)c3c(Nc4ccc(I)cc4F)c(F)c(=O)n(C)c23)c1` (stereo not drawn) [Example 44, N-(3-(6-(2,3-dihydroxypropyl)-3-fluoro-4-(2-fluoro-4-iodophenylamino)-1-methyl-2,5-dioxo-1,2,5,6-tetrahydropyrido[2,3-d]pyridazin-8-yl)phenyl)ethanesulfonamide], in that order: 57.7 nM and 71.3 nM.
For `CC(C)S(=O)(=O)Nc1cccc(-c2nn(CC(O)CO)c(=O)c3c(Nc4ccc(I)cc4F)c(F)c(=O)n(C)c23)c1` (stereo not drawn) [Example 45, N-(3-(6-(2,3-dihydroxypropyl)-3-fluoro-4-(2-fluoro-4-iodophenylamino)-1-methyl-2,5-dioxo-1,2,5,6-tetrahydropyrido[2,3-d]pyridazin-8-yl)phenyl)propane-2-sulfonamide] the same measures were 23.5 nM and 9.8 nM.
For `Cn1c(=O)c(F)c(Nc2ccc(I)cc2F)c2c(=O)n(CC(O)CO)nc(-c3cccc(NS(=O)(=O)C4CC4)c3)c21` (stereo not drawn) [Example 46, N-(3-(6-(2,3-dihydroxypropyl)-3-fluoro-4-(2-fluoro-4-iodophenylamino)-1-methyl-2,5-dioxo-1,2,5,6-tetrahydropyrido[2,3-d]pyridazin-8-yl)phenyl)cyclopropanesulfonamide] the same measures were 24.2 nM and 68.9 nM.
Consider `CN(c1cccc(-c2nn(C3CC3)c(=O)c3c(Nc4ccc(I)cc4F)c(F)c(=O)n(C)c23)c1)S(C)(=O)=O` [Example 47, N-(3-(6-cyclopropyl-3-fluoro-4-((2-fluoro-4-iodophenyl)amino)-1-methyl-2,5-dioxo-1,2,5,6-tetrahydropyrido[2,3-d]pyridazin-8-yl)phenyl)-N-methylmethanesulfonamide], for which the IC50 turned out to be 16.6 nM in the experiment with HT-29 cells (setting [1]) and 4.9 nM in the experiment with A-375 cells (setting [2]).
For `CC(C)S(=O)(=O)N(C)c1cccc(-c2nn(C3CC3)c(=O)c3c(Nc4ccc(I)cc4F)c(F)c(=O)n(C)c23)c1` [Example 48, N-(3-(6-cyclopropyl-3-fluoro-4-((2-fluoro-4-iodophenyl)amino)-1-methyl-2,5-dioxo-1,2,5,6-tetrahydropyrido[2,3-d]pyridazin-8-yl)phenyl)-N-methylpropane-2-sulfonamide] the same measures were 13.2 nM and 3.4 nM.
For `CN(c1cccc(-c2nn(C3CC3)c(=O)c3c(Nc4ccc(I)cc4F)c(F)c(=O)n(C)c23)c1)S(=O)(=O)C1CC1` [Example 49, N-(3-(6-cyclopropyl-3-fluoro-4-((2-fluoro-4-iodophenyl)amino)-1-methyl-2,5-dioxo-1,2,5,6-tetrahydropyrido[2,3-d]pyridazin-8-yl)phenyl)-N-methylcyclopropanesulfonamide], in that order: 11.7 nM and 2.5 nM.
With `CN(c1cccc(-c2nn(C)c(=O)c3c(Nc4ccc(I)cc4F)c(F)c(=O)n(C)c23)c1)S(C)(=O)=O` [Example 50, N-(3-(3-fluoro-4-((2-fluoro-4-iodophenyl)amino)-1,6-dimethyl-2,5-dioxo-1,2,5,6-tetrahydropyrido[2,3-d]pyridazin-8-yl)phenyl)-N-methylmethanesulfonamide], the IC50 worked out at 5.3 nM with HT-29 cells (setting [1]) and 1.5 nM in the experiment with A-375 cells (setting [2]).
For `CC(C)S(=O)(=O)N(C)c1cccc(-c2nn(C)c(=O)c3c(Nc4ccc(I)cc4F)c(F)c(=O)n(C)c23)c1` [Example 51, N-(3-(3-fluoro-4-((2-fluoro-4-iodophenyl)amino)-1,6-dimethyl-2,5-dioxo-1,2,5,6-tetrahydropyrido[2,3-d]pyridazin-8-yl)phenyl)-N-methylpropane-2-sulfonamide], the half-maximal inhibitory concentration (IC50) with HT-29 cells (read-out: HT29 IC50 (nM)) worked out at 2 nM; with A-375 cells (read-out: A375 IC50 (nM)), 2.2 nM.
Take `CN(c1cccc(-c2nn(C)c(=O)c3c(Nc4ccc(I)cc4F)c(F)c(=O)n(C)c23)c1)S(=O)(=O)C1CC1` [Example 52, N-(3-(3-fluoro-4-((2-fluoro-4-iodophenyl)amino)-1,6-dimethyl-2,5-dioxo-1,2,5,6-tetrahydropyrido[2,3-d]pyridazin-8-yl)phenyl)-N-methylcyclopropanesulfonamide]: the IC50 in the experiment with HT-29 cells (setting [1]) turned out to be 7.8 nM; with A-375 cells (setting [2]) it was 5.7 nM.
For `Cn1c(=O)c(F)c(Nc2ccc(I)cc2F)c2c(=O)n(C3CC3)nc(-c3cccc(N4CCCC4=O)c3)c21` [Example 53, 6-cyclopropyl-3-fluoro-4-((2-fluoro-4-iodophenyl)amino)-1-methyl-8-(3-(2-oxopyrrolidin-1-yl)phenyl)pyrido[2,3-d]pyridazine-2,5(1H,6H)-dione], in that order: 19.1 nM and 7.8 nM.
As for `Cn1nc(-c2cccc(N3CCCC3=O)c2)c2c(c(Nc3ccc(I)cc3F)c(F)c(=O)n2C)c1=O` [Example 54, 3-fluoro-4-((2-fluoro-4-iodophenyl)amino)-1,6-dimethyl-8-(3-(2-oxopyrrolidin-1-yl)phenyl)pyrido[2,3-d]pyridazine-2,5(1H,6H)-dione], the IC50 in the experiment on HT-29 cells (read-out: HT29 IC50 (nM)) worked out at 7.9 nM; in the experiment on A-375 cells (read-out: A375 IC50 (nM)) it was 4.7 nM.
Turning to `Cn1c(=O)c(F)c(Nc2ccc(I)cc2F)c2c(=O)n(C3CC3)nc(-c3cccc(N4CCCS4(=O)=O)c3)c21` [Example 55, 6-cyclopropyl-8-(3-(1,1-dioxidoisothiazolidin-2-yl)phenyl)-3-fluoro-4-((2-fluoro-4-iodophenyl)amino)-1-methylpyrido[2,3-d]pyridazine-2,5(1H,6H)-dione], the half-inhibitory concentration (IC50) worked out at 18.7 nM with HT-29 cells (setting [1]) and 8.8 nM in the experiment on A-375 cells (setting [2]).
In the case of `Cn1nc(-c2cccc(N3CCCS3(=O)=O)c2)c2c(c(Nc3ccc(I)cc3F)c(F)c(=O)n2C)c1=O` [Example 56, 8-(3-(1,1-dioxidoisothiazolidin-2-yl)phenyl)-3-fluoro-4-((2-fluoro-4-iodophenyl)amino)-1,6-dimethylpyrido[2,3-d]pyridazine-2,5(1H,6H)-dione], the IC50 was found to be 14.1 nM in the experiment with HT-29 cells (setting [1]) and 9.3 nM with A-375 cells (setting [2]).
For `Cc1ccc(Nc2c(C)c(=O)n(C)c3c(C)n[nH]c(=O)c23)c(F)c1` [Reference Compound, 4-((2-fluoro-4-methylphenyl)amino)-1,3,8-trimethylpyrido[2,3-d]pyridazine-2,5(1H,6H)-dione, reference compound] the same measures were greater than 1000 nM and greater than 1000 nM.
